15 compounds from patent publication US10513521B2, “Compositions and methods for inhibiting BMP” (The Brigham and Women's Hospital, Inc., priority 2014, dated 2019) can be followed below.

Where two headings read alike, the source gives them in different places.

In one experiment the target is ALK6 (Homo sapiens, UniProt O00238). Kind of experiment: TR-FRET enzymatic ALK kinase assay, ALK6. In general terms: Time-resolved FRET reads energy transfer from a long-lived donor to a nearby acceptor.
Another experiment addresses T1, ALK5 (Homo sapiens, UniProt P36897).
T1 sequence (P36897 34-503): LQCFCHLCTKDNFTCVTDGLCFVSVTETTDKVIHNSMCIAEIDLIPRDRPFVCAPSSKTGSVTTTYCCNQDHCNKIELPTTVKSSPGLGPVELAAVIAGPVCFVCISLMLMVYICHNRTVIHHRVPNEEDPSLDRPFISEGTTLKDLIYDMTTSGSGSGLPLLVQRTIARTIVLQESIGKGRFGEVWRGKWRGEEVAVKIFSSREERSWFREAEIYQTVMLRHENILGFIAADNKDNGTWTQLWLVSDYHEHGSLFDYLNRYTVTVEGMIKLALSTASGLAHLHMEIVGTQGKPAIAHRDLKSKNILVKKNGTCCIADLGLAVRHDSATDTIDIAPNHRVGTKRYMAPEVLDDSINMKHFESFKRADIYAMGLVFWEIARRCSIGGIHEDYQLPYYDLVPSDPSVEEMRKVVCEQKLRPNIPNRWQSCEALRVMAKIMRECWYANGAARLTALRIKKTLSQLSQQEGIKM
Nature of the experiment: TR-FRET enzymatic ALK kinase assay, ALK5.

The target in another experiment is ALK1 (Homo sapiens, UniProt P37023). Nature of the experiment: TR-FRET enzymatic ALK kinase assay, ALK1.
Sequence of ALK1 (P37023 22-503): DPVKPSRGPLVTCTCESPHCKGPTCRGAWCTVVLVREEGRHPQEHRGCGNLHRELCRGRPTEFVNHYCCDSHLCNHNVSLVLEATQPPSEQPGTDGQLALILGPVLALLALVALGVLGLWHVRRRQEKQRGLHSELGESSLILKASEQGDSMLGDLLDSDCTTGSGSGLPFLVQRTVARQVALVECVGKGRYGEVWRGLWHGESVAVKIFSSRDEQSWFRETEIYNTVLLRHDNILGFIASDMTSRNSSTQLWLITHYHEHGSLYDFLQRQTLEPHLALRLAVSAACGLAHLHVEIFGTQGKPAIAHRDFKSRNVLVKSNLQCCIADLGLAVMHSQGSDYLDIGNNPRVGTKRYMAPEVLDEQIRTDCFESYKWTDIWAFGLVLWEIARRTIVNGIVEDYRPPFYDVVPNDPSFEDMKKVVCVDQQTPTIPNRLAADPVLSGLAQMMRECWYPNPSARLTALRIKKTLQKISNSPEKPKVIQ
A further experiment addresses T2, ALK4 (Homo sapiens, UniProt P36896).
T2 sequence (P36896 24-505): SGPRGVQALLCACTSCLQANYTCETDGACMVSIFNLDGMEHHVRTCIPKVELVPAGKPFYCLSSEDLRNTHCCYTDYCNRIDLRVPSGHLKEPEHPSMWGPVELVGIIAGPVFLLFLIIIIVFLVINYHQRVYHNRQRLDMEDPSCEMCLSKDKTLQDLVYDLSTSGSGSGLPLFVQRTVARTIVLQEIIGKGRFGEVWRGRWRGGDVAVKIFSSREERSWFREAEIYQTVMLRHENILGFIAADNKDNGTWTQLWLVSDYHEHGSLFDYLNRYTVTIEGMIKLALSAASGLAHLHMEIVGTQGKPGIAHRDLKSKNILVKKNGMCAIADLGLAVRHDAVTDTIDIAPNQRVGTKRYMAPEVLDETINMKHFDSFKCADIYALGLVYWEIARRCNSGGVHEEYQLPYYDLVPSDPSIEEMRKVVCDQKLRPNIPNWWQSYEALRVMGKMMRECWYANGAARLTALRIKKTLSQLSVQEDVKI
Kind of experiment: TR-FRET enzymatic ALK kinase assay, ALK4.

The next experiment deals with T3, ALK2 (Homo sapiens, UniProt Q04771).
T3 sequence (Q04771 21-509): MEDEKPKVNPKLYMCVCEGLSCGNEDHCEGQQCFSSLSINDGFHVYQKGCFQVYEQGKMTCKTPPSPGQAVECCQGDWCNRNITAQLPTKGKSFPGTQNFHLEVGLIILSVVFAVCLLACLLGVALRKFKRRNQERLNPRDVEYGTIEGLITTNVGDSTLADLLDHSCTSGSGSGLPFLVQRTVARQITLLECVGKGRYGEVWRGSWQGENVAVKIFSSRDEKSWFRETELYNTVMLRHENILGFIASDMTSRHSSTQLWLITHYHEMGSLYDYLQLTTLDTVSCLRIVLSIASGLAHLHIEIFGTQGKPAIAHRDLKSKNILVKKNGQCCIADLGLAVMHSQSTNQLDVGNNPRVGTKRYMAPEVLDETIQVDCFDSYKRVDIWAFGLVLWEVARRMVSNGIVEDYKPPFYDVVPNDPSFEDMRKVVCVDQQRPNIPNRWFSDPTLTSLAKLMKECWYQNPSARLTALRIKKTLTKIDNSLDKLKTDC
Kind of experiment: TR-FRET enzymatic ALK kinase assay, ALK2.

A further experiment addresses ALK3 (Homo sapiens, UniProt P36894). Kind of experiment: TR-FRET enzymatic ALK kinase assay, ALK3.

Sequence of ALK3 (P36894 24-532): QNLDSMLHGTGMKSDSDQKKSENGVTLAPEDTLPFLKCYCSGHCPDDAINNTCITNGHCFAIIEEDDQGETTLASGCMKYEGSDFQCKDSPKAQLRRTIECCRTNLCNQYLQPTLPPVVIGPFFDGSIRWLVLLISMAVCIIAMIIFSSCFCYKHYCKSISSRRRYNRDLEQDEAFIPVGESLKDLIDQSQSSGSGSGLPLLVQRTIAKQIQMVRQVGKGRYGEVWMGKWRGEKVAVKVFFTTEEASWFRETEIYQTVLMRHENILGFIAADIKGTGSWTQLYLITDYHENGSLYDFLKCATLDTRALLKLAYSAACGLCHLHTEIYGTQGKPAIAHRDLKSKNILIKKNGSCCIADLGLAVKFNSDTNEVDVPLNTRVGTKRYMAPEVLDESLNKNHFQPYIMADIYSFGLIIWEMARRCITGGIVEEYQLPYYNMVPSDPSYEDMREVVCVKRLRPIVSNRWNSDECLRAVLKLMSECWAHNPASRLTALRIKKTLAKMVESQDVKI
Sequence of ALK6 (O00238 14-502): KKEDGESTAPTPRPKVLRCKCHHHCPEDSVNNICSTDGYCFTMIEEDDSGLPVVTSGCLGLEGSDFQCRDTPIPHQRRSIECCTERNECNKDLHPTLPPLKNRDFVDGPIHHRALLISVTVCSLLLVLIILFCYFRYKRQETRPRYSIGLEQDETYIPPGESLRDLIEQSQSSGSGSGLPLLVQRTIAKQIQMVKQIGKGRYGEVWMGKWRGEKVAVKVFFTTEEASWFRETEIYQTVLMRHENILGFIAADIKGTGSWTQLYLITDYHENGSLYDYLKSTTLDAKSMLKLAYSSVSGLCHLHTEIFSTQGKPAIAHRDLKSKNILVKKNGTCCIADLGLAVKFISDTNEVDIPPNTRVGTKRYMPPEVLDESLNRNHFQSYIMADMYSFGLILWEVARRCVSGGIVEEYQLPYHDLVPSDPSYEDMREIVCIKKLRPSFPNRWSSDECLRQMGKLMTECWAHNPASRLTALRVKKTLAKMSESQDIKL
Procedure for ALK1: (§1) Briefly, the ALKs enzymatic assay was initiated by dispense 2.5 μl enzyme in 1× kinase reaction buffer. The assay plate was then added with compounds followed by incubation at room temperature for 10 minutes. Then 2.5 μl/well substrate was added.
Procedure for ALK2: as §1
Procedure for ALK3: as §1
Procedure for ALK4: as §1
Procedure for ALK5: Six ALK kinase enzyme assays were developed for determination of compound activities on ALK1, ALK2, ALK3, ALK4, ALK5 and ALK6.
as §1
Procedure for ALK6: as §1

For `CS(=O)(=O)c1cccc(-c2cnn3cc(-c4ccc(CCN5CCOCC5)cc4)cnc23)c1` [Compound 131, 4-(4-(3-(3-(methylsulfonyl)phenyl)pyrazolo[1,5-a]pyrimidin-6-yl)phenethyl)morpholine], the IC50 is 5.1 µM against ALK6; more than 10 µM on ALK5; 760 nM against ALK1; more than 10 µM against ALK4; 150 nM on ALK2; 2.3 µM on ALK3.

On to “(3R)-1-((1-(4-(3-(3-(1-amino-2,2,2-trifluoroethyl)phenyl)pyrazolo[1,5-a]pyrimidin-6-yl)phenoxy)cyclopropyl)methyl)-3-methylpyrrolidin-3-ol [Compound 185]”, for which the IC50 was more than 10 µM on ALK6 (read-out: Kinase Assay ALK6, enzyme assay); more than 10 µM at ALK5 (read-out: Kinase Assay ALK5, enzyme assay); 540 nM at ALK1 (read-out: Kinase Assay ALK1, enzyme assay); more than 10 µM at ALK4 (read-out: Kinase Assay ALK4, enzyme assay); 44 nM on ALK2 (read-out: Kinase Assay ALK2, enzyme assay); 1.8 µM at ALK3 (read-out: Kinase Assay ALK3, enzyme assay).

For `CC(O)c1cccc(-c2cnn3cc(-c4ccc(C5(N)CC5)cc4)cnc23)c1` (stereo not drawn) [Compound 191, 1-(3-(6-(4-(1-aminocyclopropyl)phenyl)pyrazolo[1,5-a]pyrimidin-3-yl)phenyl)ethanol], the IC50 on ALK6 was more than 10 µM; against ALK5, more than 10 µM; on ALK1, 1500 nM; against ALK4, more than 10 µM; at ALK2 it was 120 nM; against ALK3, 5.4 µM.

Consider `CS(=O)(=O)c1cccc(-c2cnn3cc(-c4ccc(CCN5CCC(O)CC5)cc4)cnc23)c1` [Compound 140, 1-(4-(3-(3-(methylsulfonyl)phenyl)pyrazolo[1,5-a]pyrimidin-6-yl)phenethyl)piperidin-4-ol], for which the IC50 against ALK6 is more than 10 µM; against ALK5, more than 10 µM; at ALK1, 620 nM; against ALK4, more than 10 µM; against ALK2 it was 140 nM; on ALK3 it was 7.6 µM.

For `CC(O)c1ccc(-c2cnn3cc(-c4ccc(N5[C@H](C)CNC[C@@H]5C)cc4)cnc23)c2ccccc12` (stereo partly drawn) [Compound 29, 1-(4-(6-(4-((2R,6S)-2,6-dimethylpiperazin-1-yl)phenyl)pyrazolo[1,5-a]pyrimidin-3-yl)naphthalen-1-yl)ethanol], the IC50 against ALK6 was 0.294 µM; on ALK5 it was 5.37 µM; on ALK1, 20 nM; at ALK4, 3.54 µM; on ALK2, 14 nM; at ALK3, 0.084 µM.

Turning to `C[C@@H]1CNC[C@H](C)N1c1ccc(-c2cnc3c(-c4cc(C(F)(F)F)cc(S(C)(=O)=O)c4)cnn3c2)cc1` [Compound 193, 6-(4-((2R,6S)-2,6-dimethylpiperazin-1-yl)phenyl)-3-(3-(methylsulfonyl)-5-(trifluoromethyl)phenyl)pyrazolo[1,5-a]pyrimidine], the IC50 against ALK6 is 1.2 µM; against ALK5, more than 10 µM; against ALK1, 7500 nM; on ALK4 it was more than 10 µM; against ALK2 it was 550 nM; at ALK3, more than 10 µM.

As for `C[C@H](O)c1cccc(-c2cnn3cc(-c4ccc(OCCN5CCCC5)cc4)cnc23)c1` [Compound 200, (S)-1-(3-(6-(4-(2-(pyrrolidin-1-yl)ethoxy)phenyl)pyrazolo[1,5-a]pyrimidin-3-yl)phenyl)ethanol], the IC50 on ALK6 was 2.3 µM; on ALK5 it was more than 10 µM; on ALK1, 1300 nM; against ALK4, more than 10 µM; against ALK2 it was 68 nM; at ALK3, 1.2 µM.

As for `CC(O)c1cccc(-c2cnn3cc(-c4ccc(CCN5CCCC(O)C5)cc4)cnc23)c1` (stereo not drawn) [Compound 150, 1-(4-(3-(3-(1-hydroxyethyl)phenyl)pyrazolo[1,5-a]pyrimidin-6-yl)phenethyl)piperidin-3-ol], the IC50 at ALK6 is more than 10 µM; on ALK5, more than 10 µM; at ALK1, 710 nM; at ALK4 it was more than 10 µM; on ALK2, 140 nM; on ALK3, 4.1 µM.

`CC1CCN(c2ccc(-c3cnc4c(-c5ccc(S(N)(=O)=O)c6ccccc56)cnn4c3)cn2)CC1` [Compound 47, 4-(6-(6-(4-methylpiperidin-1-yl)pyridin-3-yl)pyrazolo[1,5-a]pyrimidin-3-yl)naphthalene-1-sulfonamide]: the IC50 against ALK6 was more than 10 µM; against ALK5 it was more than 10 µM; against ALK1, 5700 nM; against ALK4, more than 10 µM; against ALK2, 2900 nM; on ALK3, more than 10 µM.

Turning to `C[C@@H](O)c1cccc(-c2cnn3cc(-c4ccc(CCN5CCC(O)CC5)cc4)cnc23)c1` [Compound 159, (R)-1-(4-(3-(3-(1-hydroxyethyl)phenyl)pyrazolo[1,5-a]pyrimidin-6-yl)phenethyl)piperidin-4-ol], the IC50 against ALK6 was more than 10 µM; at ALK5 it was more than 10 µM; at ALK1 it was 1000 nM; against ALK4 it was more than 10 µM; against ALK2 it was 180 nM; against ALK3 it was 6.1 µM.

Consider `NC(c1cccc(-c2cnn3cc(-c4ccc(OC5(CN6CCOCC6)CC5)cc4)cnc23)c1)C(F)(F)F` (stereo not drawn) [Compound 181, 2,2,2-trifluoro-1-(3-(6-(4-(1-(morpholinomethyl)cyclopropoxy)phenyl)pyrazolo[1,5-a]pyrimidin-3-yl)phenyl)ethanamine], for which the IC50 was more than 10 µM at ALK6; more than 10 µM against ALK5; 2000 nM on ALK1; more than 10 µM on ALK4; 70 nM against ALK2; 3.3 µM against ALK3.

As to `CC(O)c1cccc(-c2cnn3cc(-c4ccc(CCN5CCNCC5)cc4)cnc23)c1` (stereo not drawn) [Compound 171, 1-(3-(6-(4-(2-(piperazin-1-yl)ethyl)phenyl)pyrazolo[1,5-a]pyrimidin-3-yl)phenyl)ethanol], the IC50 against ALK6 is more than 10 µM; against ALK5 it was more than 10 µM; against ALK1 it was 1100 nM; at ALK4 it was more than 10 µM; against ALK2, 170 nM; against ALK3, 2 µM.

For `NC(c1ccc(-c2cnn3cc(-c4ccc(OCCN5CCCCC5)cc4)cnc23)cc1)C(F)(F)F` (stereo not drawn) [Compound 144, 2,2,2-trifluoro-1-(4-(6-(4-(2-(piperidin-1-yl)ethoxy)phenyl)pyrazolo[1,5-a]pyrimidin-3-yl)phenyl)ethanamine], the IC50 against ALK6 is more than 10 µM; at ALK5 it was more than 10 µM; on ALK1, more than 10000 nM; against ALK4, more than 10 µM; against ALK2, more than 10000 nM; against ALK3, more than 10 µM.

Turning to `CC(O)c1cccc2c(-c3cnn4cc(-c5ccc(N6[C@H](C)CNC[C@@H]6C)cc5)cnc34)cccc12` (stereo partly drawn) [Compound 33, 1-(5-(6-(4-((2R,6S)-2,6-dimethylpiperazin-1-yl)phenyl)pyrazolo[1,5-a]pyrimidin-3-yl)naphthalen-1-yl)ethanol], the IC50 against ALK6 stood at 16.2 µM; against ALK5, 40.4 µM; against ALK1, 1520 nM; on ALK4, 16.3 µM; against ALK2, 367 nM; against ALK3, 7.83 µM.

As for `C[C@@H](O)c1cccc(-c2cnn3cc(-c4ccc(CCN5CCCC5)cc4)cnc23)c1` [Compound 156, (R)-1-(3-(6-(4-(2-(pyrrolidin-1-yl)ethyl)phenyl)pyrazolo[1,5-a]pyrimidin-3-yl)phenyl)ethanol], the IC50 against ALK6 is more than 10 µM; at ALK5 it was more than 10 µM; against ALK1, 840 nM; against ALK4, more than 10 µM; against ALK2, 160 nM; at ALK3, 6.2 µM.
